Test results reported in ChEMBL document CHEMBL1152560, “Substituted 2-arylbenzothiazoles as kinase inhibitors: hit-to-lead optimization” (Bioorg Med Chem, 2009).

Experiments:
[1] = biological target: Serine/threonine-protein kinase pim-1 (Homo sapiens) (UniProt P11309); assay: Residual activity of PIM1 at 10 uM by microplate scintillation counting
[2] = biological target: Protein kinase C theta type (Homo sapiens) (UniProt Q04759); assay: Residual activity of PKCtheta at 10 uM by microplate scintillation counting
[3] = biological target: T1, Serine/threonine-protein kinase Sgk2 (Homo sapiens) (UniProt Q9HBY8); assay: Residual activity of SGK2 at 1 uM by microplate scintillation counting
T1 sequence (whole entry): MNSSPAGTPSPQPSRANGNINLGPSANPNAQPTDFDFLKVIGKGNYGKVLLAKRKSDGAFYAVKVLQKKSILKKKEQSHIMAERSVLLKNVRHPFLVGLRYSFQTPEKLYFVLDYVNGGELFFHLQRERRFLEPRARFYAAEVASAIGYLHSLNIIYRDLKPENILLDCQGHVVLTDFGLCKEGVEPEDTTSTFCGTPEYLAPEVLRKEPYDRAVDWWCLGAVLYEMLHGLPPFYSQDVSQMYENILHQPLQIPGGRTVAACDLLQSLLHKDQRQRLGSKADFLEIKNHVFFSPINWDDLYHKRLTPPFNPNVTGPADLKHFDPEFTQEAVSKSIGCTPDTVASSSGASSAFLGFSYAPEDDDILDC

[4] = system: T2, Receptor-type tyrosine-protein kinase FLT3 (Homo sapiens), P36888 [D835Y]; assay: Residual activity of FLT3 D835Y mutant at 0.1 uM by microplate scintillation counting
T2 sequence (whole entry): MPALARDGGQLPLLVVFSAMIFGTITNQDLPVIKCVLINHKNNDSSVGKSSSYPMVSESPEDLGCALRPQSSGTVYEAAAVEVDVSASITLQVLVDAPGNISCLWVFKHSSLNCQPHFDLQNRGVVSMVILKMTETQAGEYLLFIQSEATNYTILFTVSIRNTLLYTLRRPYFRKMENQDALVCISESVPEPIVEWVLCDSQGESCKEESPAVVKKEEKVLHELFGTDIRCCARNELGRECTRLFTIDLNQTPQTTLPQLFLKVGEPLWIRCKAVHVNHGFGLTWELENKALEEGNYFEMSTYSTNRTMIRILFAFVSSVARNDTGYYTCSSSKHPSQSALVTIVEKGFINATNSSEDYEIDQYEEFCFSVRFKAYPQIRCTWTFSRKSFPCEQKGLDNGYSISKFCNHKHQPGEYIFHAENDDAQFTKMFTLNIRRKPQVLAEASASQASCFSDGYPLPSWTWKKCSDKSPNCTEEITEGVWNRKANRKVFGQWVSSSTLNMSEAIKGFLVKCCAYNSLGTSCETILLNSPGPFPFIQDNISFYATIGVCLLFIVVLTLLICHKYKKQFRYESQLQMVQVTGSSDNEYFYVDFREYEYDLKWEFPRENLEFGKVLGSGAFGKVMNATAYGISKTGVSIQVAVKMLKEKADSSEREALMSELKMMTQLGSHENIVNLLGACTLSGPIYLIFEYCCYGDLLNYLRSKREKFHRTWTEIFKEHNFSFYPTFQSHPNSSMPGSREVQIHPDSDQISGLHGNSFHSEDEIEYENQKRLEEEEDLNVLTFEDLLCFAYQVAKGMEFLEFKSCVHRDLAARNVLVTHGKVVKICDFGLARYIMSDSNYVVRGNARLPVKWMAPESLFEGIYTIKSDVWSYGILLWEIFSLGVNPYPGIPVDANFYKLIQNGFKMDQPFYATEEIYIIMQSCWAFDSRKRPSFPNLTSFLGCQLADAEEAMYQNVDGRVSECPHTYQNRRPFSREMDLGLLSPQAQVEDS

[5] = biological target: Ephrin type-A receptor 2 (Homo sapiens) (UniProt P29317); assay: Residual activity of EPHA2 at 0.1 uM by microplate scintillation counting
[6] = system: Epidermal growth factor receptor (Homo sapiens), P00533 [L858R]; assay: Residual activity of EGFR L858R mutant at 0.1 uM by microplate scintillation counting
[7] = biological target: G protein-coupled receptor kinase 5 (Homo sapiens) (UniProt P34947); assay: Residual activity of GRK5 at 1 uM by microplate scintillation counting
[8] = biological target: Protein kinase C beta type (Homo sapiens) (UniProt P05771); assay: Residual activity of PKCbeta1 at 10 uM by microplate scintillation counting
[9] = biological target: T3, Muscle, skeletal receptor tyrosine-protein kinase (Homo sapiens) (UniProt O15146); assay: Residual activity of MUSK at 1 uM by microplate scintillation counting
T3 sequence (whole entry): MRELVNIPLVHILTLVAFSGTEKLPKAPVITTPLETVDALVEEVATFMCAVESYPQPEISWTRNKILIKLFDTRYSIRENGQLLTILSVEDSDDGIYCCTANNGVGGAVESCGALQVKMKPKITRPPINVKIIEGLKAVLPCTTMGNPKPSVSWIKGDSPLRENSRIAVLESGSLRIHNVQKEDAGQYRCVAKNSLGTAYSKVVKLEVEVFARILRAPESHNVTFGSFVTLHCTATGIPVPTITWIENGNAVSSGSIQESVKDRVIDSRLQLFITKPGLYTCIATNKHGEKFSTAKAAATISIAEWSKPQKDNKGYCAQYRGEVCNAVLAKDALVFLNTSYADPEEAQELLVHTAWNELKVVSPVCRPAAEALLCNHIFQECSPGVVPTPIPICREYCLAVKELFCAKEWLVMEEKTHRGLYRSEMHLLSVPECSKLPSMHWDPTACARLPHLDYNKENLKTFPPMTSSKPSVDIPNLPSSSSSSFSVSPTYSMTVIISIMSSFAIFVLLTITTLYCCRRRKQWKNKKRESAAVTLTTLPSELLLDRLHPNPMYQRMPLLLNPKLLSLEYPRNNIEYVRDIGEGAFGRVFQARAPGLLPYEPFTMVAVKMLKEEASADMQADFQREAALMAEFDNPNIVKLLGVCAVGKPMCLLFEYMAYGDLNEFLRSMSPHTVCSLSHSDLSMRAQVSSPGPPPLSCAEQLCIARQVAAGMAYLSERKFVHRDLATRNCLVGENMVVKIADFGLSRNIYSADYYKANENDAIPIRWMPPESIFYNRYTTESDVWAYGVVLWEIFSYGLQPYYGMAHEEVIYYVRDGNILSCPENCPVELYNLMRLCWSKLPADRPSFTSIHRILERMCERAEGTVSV

Sequence of Serine/threonine-protein kinase pim-1 (Homo sapiens) (P11309 whole entry, looked up): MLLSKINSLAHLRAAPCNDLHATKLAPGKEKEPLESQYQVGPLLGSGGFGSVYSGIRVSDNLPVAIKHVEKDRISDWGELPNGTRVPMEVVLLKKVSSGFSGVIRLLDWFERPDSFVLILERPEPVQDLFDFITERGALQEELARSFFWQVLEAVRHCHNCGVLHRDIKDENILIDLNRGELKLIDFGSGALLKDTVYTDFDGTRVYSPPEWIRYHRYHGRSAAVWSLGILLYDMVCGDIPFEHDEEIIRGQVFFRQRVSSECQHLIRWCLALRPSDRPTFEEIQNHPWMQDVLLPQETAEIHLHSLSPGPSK
Sequence of Protein kinase C theta type (Homo sapiens) (Q04759 whole entry, looked up): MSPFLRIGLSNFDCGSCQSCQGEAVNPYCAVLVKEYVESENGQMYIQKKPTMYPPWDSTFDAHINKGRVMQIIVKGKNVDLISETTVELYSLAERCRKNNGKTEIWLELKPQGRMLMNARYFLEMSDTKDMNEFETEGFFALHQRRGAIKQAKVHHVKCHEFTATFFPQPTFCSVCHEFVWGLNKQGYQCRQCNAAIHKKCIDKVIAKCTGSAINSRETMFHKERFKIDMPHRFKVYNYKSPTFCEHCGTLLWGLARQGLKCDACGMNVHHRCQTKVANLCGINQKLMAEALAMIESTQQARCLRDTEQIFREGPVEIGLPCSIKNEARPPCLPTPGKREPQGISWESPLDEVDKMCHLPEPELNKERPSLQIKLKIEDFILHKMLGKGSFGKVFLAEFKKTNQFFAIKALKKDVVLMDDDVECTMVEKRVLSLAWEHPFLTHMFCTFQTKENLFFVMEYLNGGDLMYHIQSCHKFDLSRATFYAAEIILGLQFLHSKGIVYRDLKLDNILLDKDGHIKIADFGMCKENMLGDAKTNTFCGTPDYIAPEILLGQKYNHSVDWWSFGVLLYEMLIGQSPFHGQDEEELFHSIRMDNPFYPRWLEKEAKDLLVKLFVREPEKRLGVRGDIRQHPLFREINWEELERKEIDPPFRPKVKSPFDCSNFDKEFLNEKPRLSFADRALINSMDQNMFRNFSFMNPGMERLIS
Sequence of G protein-coupled receptor kinase 5 (Homo sapiens) (P34947 whole entry, looked up): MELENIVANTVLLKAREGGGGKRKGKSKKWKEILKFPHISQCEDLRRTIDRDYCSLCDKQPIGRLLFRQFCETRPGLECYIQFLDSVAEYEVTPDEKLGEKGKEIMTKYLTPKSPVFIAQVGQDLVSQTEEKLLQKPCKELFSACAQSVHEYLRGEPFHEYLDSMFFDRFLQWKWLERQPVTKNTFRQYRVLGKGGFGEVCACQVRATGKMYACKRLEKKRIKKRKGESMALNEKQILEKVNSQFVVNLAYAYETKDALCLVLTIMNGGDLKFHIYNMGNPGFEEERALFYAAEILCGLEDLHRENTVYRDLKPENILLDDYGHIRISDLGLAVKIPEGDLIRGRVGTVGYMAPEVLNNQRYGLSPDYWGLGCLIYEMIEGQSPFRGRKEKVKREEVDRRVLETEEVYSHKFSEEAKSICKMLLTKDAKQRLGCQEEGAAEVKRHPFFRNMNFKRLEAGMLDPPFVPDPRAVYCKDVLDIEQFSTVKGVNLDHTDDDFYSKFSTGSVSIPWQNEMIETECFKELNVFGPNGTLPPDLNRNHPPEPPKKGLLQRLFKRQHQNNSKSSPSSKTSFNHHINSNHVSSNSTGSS
Sequence of Protein kinase C beta type (Homo sapiens) (P05771 2-671 limits assumed): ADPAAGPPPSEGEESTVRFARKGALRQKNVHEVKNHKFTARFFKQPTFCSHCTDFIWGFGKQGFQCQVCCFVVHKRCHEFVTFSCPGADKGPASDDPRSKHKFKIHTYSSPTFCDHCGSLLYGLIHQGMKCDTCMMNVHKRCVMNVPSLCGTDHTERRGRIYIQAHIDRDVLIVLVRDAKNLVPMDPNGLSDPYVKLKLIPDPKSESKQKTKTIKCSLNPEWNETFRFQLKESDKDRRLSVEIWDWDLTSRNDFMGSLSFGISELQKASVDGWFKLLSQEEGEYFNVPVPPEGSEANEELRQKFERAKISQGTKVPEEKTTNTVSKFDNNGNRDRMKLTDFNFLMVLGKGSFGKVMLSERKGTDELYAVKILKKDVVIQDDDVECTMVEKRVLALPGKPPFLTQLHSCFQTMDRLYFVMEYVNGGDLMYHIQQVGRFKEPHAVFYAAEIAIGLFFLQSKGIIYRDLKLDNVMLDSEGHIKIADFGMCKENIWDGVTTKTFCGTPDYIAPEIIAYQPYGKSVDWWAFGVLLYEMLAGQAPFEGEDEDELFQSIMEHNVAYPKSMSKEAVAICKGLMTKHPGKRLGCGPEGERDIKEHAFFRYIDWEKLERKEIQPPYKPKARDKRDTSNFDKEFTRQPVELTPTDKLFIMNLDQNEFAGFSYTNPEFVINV
Sequence of Ephrin type-A receptor 2 (Homo sapiens) (P29317 whole entry): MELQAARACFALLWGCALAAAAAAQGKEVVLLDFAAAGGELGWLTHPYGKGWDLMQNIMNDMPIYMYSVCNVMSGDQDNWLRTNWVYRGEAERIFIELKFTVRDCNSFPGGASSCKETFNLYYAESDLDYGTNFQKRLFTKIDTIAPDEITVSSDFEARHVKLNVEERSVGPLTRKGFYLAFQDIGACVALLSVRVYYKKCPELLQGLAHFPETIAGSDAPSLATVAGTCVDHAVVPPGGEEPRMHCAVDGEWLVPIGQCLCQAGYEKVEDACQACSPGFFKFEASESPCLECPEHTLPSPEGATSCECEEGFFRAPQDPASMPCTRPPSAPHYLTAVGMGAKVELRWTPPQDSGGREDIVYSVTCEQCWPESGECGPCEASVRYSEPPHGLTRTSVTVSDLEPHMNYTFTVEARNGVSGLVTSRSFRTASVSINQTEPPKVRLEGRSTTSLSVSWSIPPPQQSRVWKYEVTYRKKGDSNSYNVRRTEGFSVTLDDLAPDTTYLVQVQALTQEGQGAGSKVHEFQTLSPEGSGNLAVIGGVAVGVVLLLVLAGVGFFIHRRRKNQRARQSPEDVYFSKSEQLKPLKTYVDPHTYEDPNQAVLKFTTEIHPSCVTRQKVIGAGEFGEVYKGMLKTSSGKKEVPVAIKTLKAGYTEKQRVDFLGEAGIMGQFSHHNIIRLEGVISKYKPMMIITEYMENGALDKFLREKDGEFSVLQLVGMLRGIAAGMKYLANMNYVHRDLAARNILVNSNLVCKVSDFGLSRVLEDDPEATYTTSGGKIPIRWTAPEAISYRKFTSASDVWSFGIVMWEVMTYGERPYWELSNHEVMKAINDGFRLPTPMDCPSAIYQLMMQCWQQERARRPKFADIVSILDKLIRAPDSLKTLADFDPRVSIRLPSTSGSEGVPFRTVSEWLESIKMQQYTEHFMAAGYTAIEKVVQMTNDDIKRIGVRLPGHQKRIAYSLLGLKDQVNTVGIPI

residual activity [1] [%]	residual activity [2] [%]	residual activity [3] [%]	residual activity [4] [%]	residual activity [5] [%]	residual activity [6] [%]	residual activity [7] [%]	residual activity [8] [%]	residual activity [9] [%]	SMILES
74	64	93	83	76	92	89	73	94	COc1cc2c(Oc3ccc(-c4nc5ccccc5s4)cc3)ncnc2cc1OCCCN1CCCC1
124	96	95	86	99	93	87	81	89	COc1cc2c(Oc3ccc(-c4nc5ccccc5s4)cc3)ncnc2cc1OCCCN1CCN(C)CC1
97	87	93	79	94	94	90	57	88	COc1cc2c(Oc3ccc(-c4nc5ccccc5s4)cc3F)ncnc2cc1OCCCN1CCN(C)CC1
